The values below come from the supplement of paper PMC11061612.

Assay in all cases: combination Emax (second highest fraction inhibited in the dose matrix, 72 h); higher = more inhibition; extreme values may be limits of the assay
The subject of one assay is ES-2 (Ovarian Carcinoma). The essentials:
(§1)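 Bliss excess equals the observed combination effect minus the expected value EA + EB − EA·EB, where EA and EB are the effects of each agent alone. Combination Emax is the second-highest inhibition within the matrix. Inhibition was scaled from CellTiter-Glo 2.0 luminescence, with 0 set by vehicle wells and 1 by blank wells, after 72 hours of two-drug dosing of cells plated in 1536-well plates.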

Another assay has as its system KYM-1 (Rhabdomyosarcoma). The essentials: as §1
Assay [1] deals with HSC-3 (Oral Cavity Carcinoma). The method in brief: as §1
In assay [2] the test system is NCI-H810 (Non-Small Cell Lung Carcinoma). The essentials:
as §1

Assay [3] relates to Calu-6 (Non-Small Cell Lung Carcinoma). The method in brief: as §1
The test system of assay [4] is OV-90 (Ovarian Carcinoma). The essentials:
as §1

Assay [5] has as its system NCI-H1155 (Non-Small Cell Lung Carcinoma). The method in brief:
as §1

Assay [6] deals with SK-MM-2 (Plasma Cell Myeloma). The method in brief:
as §1

The subject of assay [7] is KYSE-70 (Esophageal Squamous Cell Carcinoma). The method in brief:
as §1

Assay [8] has as its system NCI-H196 (Small Cell Lung Carcinoma). The method in brief: as §1
A further assay deals with HuO-3N1 (Osteosarcoma). The method in brief:
as §1

Assay [9] deals with JHH-1 (Hepatocellular Carcinoma). The method in brief:
as §1

A further assay has as its system RT4 (Bladder Carcinoma). The essentials:
as §1

The subject of assay [10] is PC-14 (Lung Adenocarcinoma). The essentials: as §1
The subject of assay [11] is RMG-I (Ovarian Carcinoma). The method in brief:
as §1

Assay [12] has as its system AN3-CA (Endometrial Carcinoma). The essentials: as §1
The subject of assay [13] is SJRH30 (Rhabdomyosarcoma). The essentials: as §1
Assay [14] relates to CML-T1 (Chronic Myelogenous Leukemia). The essentials: as §1
Assay [15] relates to LAMA-84 (Chronic Myelogenous Leukemia). The method in brief:
as §1

Assay [16] has as its system Becker (Low Grade Glioma). The method in brief:
as §1

Consider `CC1(C)CCC(CN2CCN(c3ccc(C(=O)NS(=O)(=O)c4ccc(NCC5CCOCC5)c([N+](=O)[O-])c4)c(Oc4cnc5[nH]ccc5c4)c3)CC2)=C(c2ccc(Cl)cc2)C1` [Venetoclax] + COc1cc(Nc2ncc3c(n2)-c2ccc(Cl)cc2C(c2c(F)cccc2OC)=NC3)ccc1C(=O)O [Alisertib] (first compound max 1 µM, 7x7, partner max 10 µM), for which the “combination Emax” value amounted to 0.983 with ES-2 (Ovarian Carcinoma); 0.21 in the assay on KYM-1 (Rhabdomyosarcoma); 0.61 in [1]; 0.53 in assay [2]; 0.584 in [3]; 0.248 in assay [4]. Also, the “combination Emax” value came to 0.809 in assay [5]; 1 in [6]; 0.392 in assay [7]; 0.113 in [8]; 0.372 with HuO-3N1 (Osteosarcoma); 0.567 in [9]. The “combination Emax” value with RT4 (Bladder Carcinoma) is 0.791; in assay [10], 0.741; in [11] it was 0.371; in assay [12] it was 0.9; in assay [13] it was 0.423; in assay [14], 0.965. The “combination Emax” value in assay [15] was 0.934; in [16], 0.547.
Consider `CC1(C)CCC(CN2CCN(c3ccc(C(=O)NS(=O)(=O)c4ccc(NCC5CCOCC5)c([N+](=O)[O-])c4)c(Oc4cnc5[nH]ccc5c4)c3)CC2)=C(c2ccc(Cl)cc2)C1` [Venetoclax] + C[C@@H]1COCCN1C2=NC(=NC(=C2)C3(CC3)[S@](=N)(=O)C)C4=C5C=CNC5=NC=C4 [AZD6738] (first compound max 1 µM, 7x7, partner max 10 µM), for which the “combination Emax” value was found to be 0.789 with ES-2 (Ovarian Carcinoma); 0.839 in the assay with KYM-1 (Rhabdomyosarcoma); 0.548 in assay [1]; 0.577 in assay [2]; 0.801 in [3]; 0.533 in assay [4]. Besides, the “combination Emax” value worked out at 0.829 in [5]; 1 in assay [6]; 0.433 in assay [7]; 0.376 in assay [8]; 0.393 in the assay on HuO-3N1 (Osteosarcoma); 0.609 in [9]. Further, the “combination Emax” value was determined as 0.612 in the assay on RT4 (Bladder Carcinoma); 0.845 in assay [10]; 0.545 in assay [11]; 0.653 in assay [12]; 0.864 in assay [13]; 0.993 in [14]. For the same compound, the “combination Emax” value in assay [15] is 0.975; in assay [16] it was 0.656.
For `CC1(C)CCC(CN2CCN(c3ccc(C(=O)NS(=O)(=O)c4ccc(NCC5CCOCC5)c([N+](=O)[O-])c4)c(Oc4cnc5[nH]ccc5c4)c3)CC2)=C(c2ccc(Cl)cc2)C1` [Venetoclax] + C[C@@H](Nc1cc(F)cc(F)c1)c1cc(C(=O)N(C)C)cc2c(=O)cc(N3CCOCC3)oc12 [AZD8186] (first compound max 1 µM, 7x7, partner max 3 µM), the “combination Emax” value in the assay with ES-2 (Ovarian Carcinoma) is 0.159; in the assay with KYM-1 (Rhabdomyosarcoma), 0.162; in assay [1], 0.0933; in [2], 0.0592; in assay [3], 0.125; in assay [4], 0.164. For the same compound, the “combination Emax” value in assay [5] stood at 0.422; in assay [6], 1; in assay [7] it was 0.0812; in assay [8], 0.218; in the assay on HuO-3N1 (Osteosarcoma), 0.269; in assay [9] it was 0.172. Moreover, the “combination Emax” value is 0.174 in the assay on RT4 (Bladder Carcinoma); 0.175 in assay [10]; 0.277 in assay [11]; 0.457 in assay [12]; 0.0499 in assay [13]; 0.967 in [14]. Besides, the “combination Emax” value came to 0.313 in assay [15] and 0.418 in assay [16].
Turning to `CC1(C)CCC(CN2CCN(c3ccc(C(=O)NS(=O)(=O)c4ccc(NCC5CCOCC5)c([N+](=O)[O-])c4)c(Oc4cnc5[nH]ccc5c4)c3)CC2)=C(c2ccc(Cl)cc2)C1` [Venetoclax] + Cc1cc2ncnn2cc1Nc1ncc2c(n1)n(C1CCOCC1)c(=O)n2C [AZD7648] (first compound max 1 µM, 7x7, partner max 10 µM), the “combination Emax” value in the assay on ES-2 (Ovarian Carcinoma) was determined as 0.249; in the assay on KYM-1 (Rhabdomyosarcoma) it was 0.159; in assay [1], 0.207; in [2], 0.221; in assay [3] it was 0.275; in assay [4], 0.298. The “combination Emax” value stood at 0.164 in assay [5]; 1 in assay [6]; 0.169 in assay [7]; 0.121 in [8]; 0.228 in the assay with HuO-3N1 (Osteosarcoma); 0.199 in [9]. Also, the “combination Emax” value with RT4 (Bladder Carcinoma) stood at 0.357; in [10], 0.293; in assay [11], 0.312; in [12] it was 0.411; in [13], 0.187; in assay [14] it was 0.93. For the same compound, the entries for the “combination Emax” value in assay [15] and in assay [16] were 0.299 and 0.19, respectively.
For `CC1(C)CCC(CN2CCN(c3ccc(C(=O)NS(=O)(=O)c4ccc(NCC5CCOCC5)c([N+](=O)[O-])c4)c(Oc4cnc5[nH]ccc5c4)c3)CC2)=C(c2ccc(Cl)cc2)C1` [Venetoclax] + Cn1cnc2c(F)c(Nc3ccc(Br)cc3Cl)c(C(=O)NOCCO)cc21 [Selumetinib] (first compound max 1 µM, 7x7, partner max 3 µM), the “combination Emax” value in the assay with ES-2 (Ovarian Carcinoma) amounted to 0.366; in the assay with KYM-1 (Rhabdomyosarcoma) it was 0.124; in assay [1] it was 0.365; in assay [2], 0.0631; in [3], 0.431; in assay [4], 0.571. Also, the “combination Emax” value in assay [5] turned out to be 0.371; in assay [6], 1; in [7], 0.19; in assay [8], 0.077; in the assay on HuO-3N1 (Osteosarcoma), 0.146; in assay [9], 0.272. In addition, the “combination Emax” value in the assay on RT4 (Bladder Carcinoma) stood at 0.304; in assay [10], 0.22; in assay [11] it was 0.267; in [12], 0.204; in assay [13], 0.1; in assay [14], 0.957. Also, the “combination Emax” value in assay [15] turned out to be 0.707; in [16], 0.215.
